Data taken from publication PMC3238229 (Genetics, Selection, Evolution : GSE, 2003).
Where two headings read alike, the source gives them in different places. Ends that are not written are not given here.

Columns and labels:
[1] = system: BoLA-DRB3*2703; type: binding, bovine
[2] = system: peptide-specific T-lymphocytes from BMC of a cow homozygous for BoLA-DRB3*2703; type: cell-based, Holstein cow
[3] = system: CD4+ and CD8+ peptide-specific T-lymphocytes from BMC of a cow homozygous for BoLA-DRB3*2703; type: cell-based, Holstein cow
[4] = system: IFN-γ production by peptide-specific T-lymphocytes; type: cell-based, Holstein cow
[5] = molecular target: BoLA-DRB3*2703 class II molecule (bovine); assay: competitive peptide binding to pu
[6] = molecular target: BoLA-DRB3*2703 class II molecule (bovine)
[7] = molecular target: BoLA-DRB3*2703 class II molecule (bovine); assay: binding of labelled peptide to pu

Molecule | Binding affinity (designated high or low) [1] | DNA synthesis of T-cells compared to naive cell cultures (in words) [2] | IC50 [5] | other results
KISQAVHAAHA [OVA332] | Low | not significantly different | – | IC50 ([1]; read-out: concentration required to inhibit BoLA class II-self-peptide binding by 50% (IC50)): > 640 µM
QAVHAAHAEINE [OVA336] | Low | not significantly different | – | cell divisions of CD8+lo T-lymphocytes compared to the naive lymphocyte culture [3]: more cell divisions; IFN-γ in culture supernatant compared to the naive cell culture [4]: less; IFN-γ in culture supernatant compared to the naive cell culture ([4]; 18 h): less
SSAESLKISQAV [OVA327] | Low | significantly lower | – | –
ISQAVHAAHAEIN [OVA335[323-335]] | – | – | 26.9 µM | –
SIINNYYMQQYQNSM (not fully specified) [FMD-VP4[20-34]] | – | – | – | IC50 [6]: 46.5 µM
ISQAVHAAHAEINEAGR [OVA339[323-339]] | – | – | 72.2 µM | –
DVNEFRAVTPLGRPDAE (not fully specified) [Biotinylated self-peptide DQ] | – | – | – | other [7]: 58.2 pixels
DVNEFRAVTPLGRPDAE [Self-peptide DQ (unlabelled competitor)] | – | – | 16.1 µM | –
QAVHAAHAEINE [OVA336[325-336]] | – | – | > 320 µM | –
SSAESLKISQAV [OVA327[316-327]] | – | – | > 320 µM | –
